Measurements from ChEMBL document CHEMBL3352519, “Discovery of a novel pyrazole series of group X secreted phospholipase A2 inhibitor (sPLA2X) via fragment based virtual screening” (Bioorg Med Chem Lett, 2014).

Assays:
[1] = target: T1, Group 10 secretory phospholipase A2 (Homo sapiens, UniProt O15496); assay: Inhibition of human sPLA2X using 1,2-bis(heptanoylthio) glycerophosphocholine substrate incubated for 30 mins
T1 sequence (O15496 whole entry): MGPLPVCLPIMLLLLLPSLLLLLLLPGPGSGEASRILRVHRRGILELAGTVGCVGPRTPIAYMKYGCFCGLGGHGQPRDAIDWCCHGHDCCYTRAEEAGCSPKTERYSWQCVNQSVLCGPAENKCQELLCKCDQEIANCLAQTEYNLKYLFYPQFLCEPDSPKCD

[2] = target: T1, Group 10 secretory phospholipase A2; assay: (§1) Binding affinity to sPLA2X (unknown origin) by NMR spectroscopy based displacement assay
[3] = target: T2, Group 10 secretory phospholipase A2 (Homo sapiens) (UniProt O15496); assay: as §1; conditions: concentration not given here
T2 sequence (whole entry): T1 sequence (O15496 whole entry)

[4] = target: T1, Group 10 secretory phospholipase A2; assay: Binding affinity to sPLA2X (unknown origin)

| IC50 [1] [nM] | Structure (SMILES) | also measured |
| --- | --- | --- |
| 1200 | Cc1sc(-c2ccccc2)cc1-c1cc(C(N)=O)nn1C |  |
| 851 | Cc1cc(-c2cc(C(N)=O)nn2C)c(C)s1 |  |
|  | O=C(O)c1ccc(-n2ncc3ccccc3c2=O)cc1 | IC50 [2]: 50000 nM; inhibition [3]: 76% |
| 174 | Cc1sc2ccccc2c1-c1cc(C(N)=O)n[nH]1 |  |
|  | O=C(O)c1csc(-c2ccc3c(c2)CCO3)n1 | IC50 [2]: 70000 nM; inhibition [3]: 80% |
| < 51.3 | Cc1sc(C(C)C)cc1-c1cc(C(N)=O)n[nH]1 |  |
| 347 | Cc1sc(-c2ccccc2)cc1-c1cc(C(N)=O)n[nH]1 |  |
| 2750 | Cc1ccccc1-c1cc(C(N)=O)n[nH]1 |  |
| 9330 | NC(=O)c1cc(-c2ccccc2Cl)[nH]n1 |  |
|  | COc1ccc2c(C(O)C(N)=O)c(C)n(Cc3ccccc3)c2c1 (stereo not given) | IC50 [4]: 250000 nM |
| 631 | Cc1sccc1-c1cc(C(N)=O)n[nH]1 |  |
| 851 | Cc1sc2ccccc2c1-c1cc(C(N)=O)nn1C |  |
|  | Oc1nc(-c2ccccc2)c(-c2ccccc2)[nH]1 | IC50 [2]: 45000 nM; inhibition [3]: 88% |
| 398 | NC(=O)c1cc(-c2cc(Cl)sc2Cl)[nH]n1 |  |
| 316 | Cc1cc(-c2cc(C(N)=O)n[nH]2)c(C)s1 | IC50 [2]: 20000 nM; inhibition [3]: 57% |
